The numbers were not newly measured in patent US20020187120A1, “Method for treating gout and reducing serum uric acid” (GelTex Pharmaceutical, Inc., priority 2001, published 2002), which cites them from elsewhere.

For the data set the following is noted: administered orally.

As for `COc1cc2c(c(OC)c1OC)-c1ccc(OC)c(=O)cc1[C@@H](NC(C)=O)CC2` [colchicine], the “people who cannot tolerate the drug because of side effects” value is reported as 80%.
